# Results: patent US9000186B2, “Ring-fused heterocyclic derivative” (Kyowa Hakko Kirin Co., Ltd., priority 2011, dated 2015)
# Biological target: T1, human Cav3.2 T-type Ca2+ channel (Homo sapiens, UniProt O95180)
# T1 construct: expressed in transfected cells; host or cells: KJMGER8 cells (Namalwa cell-derived cell line)
# Assay: Inhibitory effect for intracellular calcium response via Cav3.2 T-type Ca2+ channels (FLIPR Calcium 3 Assay Kit)
# Type: cell-based
# Conditions: not given
# T1 sequence (O95180 whole entry): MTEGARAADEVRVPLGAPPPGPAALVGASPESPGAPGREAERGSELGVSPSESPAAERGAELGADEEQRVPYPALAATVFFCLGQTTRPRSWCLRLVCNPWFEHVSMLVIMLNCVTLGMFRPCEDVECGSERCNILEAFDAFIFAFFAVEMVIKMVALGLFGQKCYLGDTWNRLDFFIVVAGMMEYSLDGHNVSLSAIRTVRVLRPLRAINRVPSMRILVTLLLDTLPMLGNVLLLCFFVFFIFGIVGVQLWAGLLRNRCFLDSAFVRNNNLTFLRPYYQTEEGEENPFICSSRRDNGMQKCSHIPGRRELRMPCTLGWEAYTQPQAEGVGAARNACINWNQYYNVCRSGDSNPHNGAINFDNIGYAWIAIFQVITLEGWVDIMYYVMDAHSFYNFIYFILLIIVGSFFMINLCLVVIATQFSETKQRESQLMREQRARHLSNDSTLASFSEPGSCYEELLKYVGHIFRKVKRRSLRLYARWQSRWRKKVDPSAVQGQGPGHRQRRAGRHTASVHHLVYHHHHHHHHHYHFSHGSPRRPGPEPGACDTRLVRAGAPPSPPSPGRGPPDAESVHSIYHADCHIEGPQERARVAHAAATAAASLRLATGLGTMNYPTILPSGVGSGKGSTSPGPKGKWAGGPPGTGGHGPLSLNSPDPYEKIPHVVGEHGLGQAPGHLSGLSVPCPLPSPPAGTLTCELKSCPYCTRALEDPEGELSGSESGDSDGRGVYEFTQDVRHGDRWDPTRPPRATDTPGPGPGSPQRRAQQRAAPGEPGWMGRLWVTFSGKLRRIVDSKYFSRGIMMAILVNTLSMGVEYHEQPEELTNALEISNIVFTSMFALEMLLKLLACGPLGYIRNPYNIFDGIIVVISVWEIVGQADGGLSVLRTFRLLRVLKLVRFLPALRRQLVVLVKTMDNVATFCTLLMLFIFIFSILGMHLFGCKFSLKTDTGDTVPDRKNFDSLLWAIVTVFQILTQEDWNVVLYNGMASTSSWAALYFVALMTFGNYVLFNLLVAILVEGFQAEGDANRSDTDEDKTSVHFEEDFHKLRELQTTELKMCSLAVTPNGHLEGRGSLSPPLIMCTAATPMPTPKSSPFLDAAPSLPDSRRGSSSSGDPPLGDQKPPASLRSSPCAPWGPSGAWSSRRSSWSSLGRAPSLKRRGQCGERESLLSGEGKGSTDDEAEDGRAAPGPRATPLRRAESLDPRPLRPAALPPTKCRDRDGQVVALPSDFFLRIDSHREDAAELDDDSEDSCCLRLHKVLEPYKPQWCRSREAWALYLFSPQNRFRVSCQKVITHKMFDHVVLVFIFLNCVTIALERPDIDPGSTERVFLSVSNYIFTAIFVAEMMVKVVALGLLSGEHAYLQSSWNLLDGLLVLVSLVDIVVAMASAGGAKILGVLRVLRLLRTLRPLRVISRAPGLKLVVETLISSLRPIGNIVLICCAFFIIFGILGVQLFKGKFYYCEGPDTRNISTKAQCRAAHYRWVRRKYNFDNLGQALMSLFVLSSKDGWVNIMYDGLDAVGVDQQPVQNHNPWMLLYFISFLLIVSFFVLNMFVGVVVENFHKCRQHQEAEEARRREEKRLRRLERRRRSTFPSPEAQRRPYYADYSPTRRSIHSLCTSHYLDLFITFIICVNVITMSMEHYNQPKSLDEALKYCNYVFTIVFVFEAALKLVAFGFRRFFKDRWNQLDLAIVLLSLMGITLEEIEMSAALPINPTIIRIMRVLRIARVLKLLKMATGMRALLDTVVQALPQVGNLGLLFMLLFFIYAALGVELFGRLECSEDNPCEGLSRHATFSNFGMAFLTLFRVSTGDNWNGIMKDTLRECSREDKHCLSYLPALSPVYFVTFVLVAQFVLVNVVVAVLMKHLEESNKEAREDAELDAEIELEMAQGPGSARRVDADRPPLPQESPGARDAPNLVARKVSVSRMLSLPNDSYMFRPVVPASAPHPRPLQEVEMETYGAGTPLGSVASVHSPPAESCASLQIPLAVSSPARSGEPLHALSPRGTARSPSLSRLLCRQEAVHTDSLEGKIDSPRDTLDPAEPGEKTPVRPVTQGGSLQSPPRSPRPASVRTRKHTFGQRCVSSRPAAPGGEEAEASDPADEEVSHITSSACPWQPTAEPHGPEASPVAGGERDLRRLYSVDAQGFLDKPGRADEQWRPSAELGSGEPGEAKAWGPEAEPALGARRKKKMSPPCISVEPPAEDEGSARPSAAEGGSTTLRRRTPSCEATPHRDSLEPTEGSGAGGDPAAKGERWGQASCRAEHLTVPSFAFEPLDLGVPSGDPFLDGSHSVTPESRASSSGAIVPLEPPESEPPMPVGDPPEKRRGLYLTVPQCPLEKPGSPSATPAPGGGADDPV
row,Compound,IC50 [nM]
1,"Cc1cc(C(=O)NC2CCSCC2)cc2nc(C(F)(F)F)c(CC3CCC(F)(F)CC3)n12 [Compound 74, 3-(4,4-Difluorocyclohexylmethyl)-5-methyl-N-(tetrahydro-2H-thiopyran-4-yl)-2-trifluoromethylimidazo[1,2-a]pyridine-7-carboxamide]",< 100
2,"CN(C)S(=O)(=O)N(C)c1ccn2c(CC3CCCCC3)c(C(C)(C)C)nc2c1 [Compound 20, N-(2-tert-Butyl-3-cyclohexylmethylimidazo[1,2-a]pyridin-7-yl)-N,N′,N′-trimethylsulfamide]",< 100
3,"Cc1cc(C(=O)Nc2ccccc2N)cc2nc(C(F)(F)F)c(CC3CCC(F)(F)CC3)n12 [Compound 68, N-(2-Aminophenyl)-3-(4,4-difluorocyclohexylmethyl)-5-methyl-2-trifluoromethylimidazo[1,2-a]pyridine-7-carboxamide]",< 100
4,"CC(C)(C)NS(=O)(=O)c1c(C(C)(C)C)nc2cc(C(=O)NC3CCOCC3)c(Cl)cn12 [Compound 162, 2-tert-Butyl-3-(N-tert-butylsulfamoyl)-6-chloro-N-(tetrahydro-2H-pyran-4-yl)imidazo[1,2-a]pyridine-7-carboxamide]",< 100
5,"CC(C)(C)c1nc2cc(C(=O)NNC(=O)c3ccccc3)ccn2c1CC1CCCCC1 [Compound 17, N′-Benzoyl-2-tert-butyl-3-cyclohexylmethylimidazo[1,2-a]pyridine-7-carbohydrazide]",< 100
6,"CC(C)c1nc2cc(C(=O)NC3CCOC(C)(C)C3)c(Cl)cn2c1S(=O)(=O)N1CC(F)(F)C1 (stereo not drawn) [Compound 153, 6-Chloro-3-(3,3-difluoroazetidin-1-ylsulfonyl)-N-(2,2-dimethyltetrahydro-2H-pyran-4-yl)-2-isopropylimidazo[1,2-a]pyridine-7-carboxamide]",< 100
7,"Cc1cc(C(=O)NCC2(C)COC2)cc2nc(C(F)(F)F)c(CC3CCC(F)(F)CC3)n12 [Compound 95, 3-(4,4-Difluorocyclohexylmethyl)-5-methyl-N-{(3-methyloxetan-3-yl)methyl}-2-trifluoromethylimidazo[1,2-a]pyridine-7-carboxamide]",< 100
8,"O=C(Nc1ccccc1)c1cc2nc(C(F)(F)F)c(CC3CCC(F)(F)CC3)n2cc1Br [Compound 117, 6-Bromo-3-(4,4-difluorocyclohexylmethyl)-N-phenyl-2-trifluoromethylimidazo[1,2-a]pyridine-7-carboxamide]",< 100
9,"COC(C)(C)c1nc2cc(C(=O)NC3CCOCC3)cc(C)n2c1CC1CCC(F)(F)CC1 [Compound 97, 3-(4,4-Difluorocyclohexylmethyl)-2-(2-methoxypropan-2-yl)-5-methyl-N-(tetrahydro-2H-pyran-4-yl)imidazo[1,2-a]pyridine-7-carboxamide]",< 100
10,"CC(C)c1nc2cc(C(=O)Nc3ccccc3)ccn2c1S(=O)(=O)N(C(C)C)C1CC1 [Compound 130, 3-(N-Cyclopropyl-N-isopropylsulfamoyl)-2-isopropyl-N-phenylimidazo[1,2-a]pyridine-7-carboxamide]",< 100
11,"CC(C)c1nc2cc(C(=O)Nc3ccccc3)ccn2c1S(=O)(=O)N(C1CC1)C1CC1 [Compound 131, 3-(N,N-Dicyclopropylsulfamoyl)-2-isopropyl-N-phenylimidazo[1,2-a]pyridine-7-carboxamide]",< 100
12,"Cc1cn2c(S(=O)(=O)NC(C)(C)C)c(C(C)C)nc2cc1C(=O)Nc1ccccc1 [Compound 168, 3-(N-tert-Butylsulfamoyl)-2-isopropyl-6-methyl-N-phenylimidazo[1,2-a]pyridine-7-carboxamide]",< 100
13,"O=C(NCC1CCOC1)c1cc(Cl)n2c(CC3CCC(F)(F)CC3)c(C(F)(F)F)nc2c1 (stereo not drawn) [Compound 106, 5-Chloro-3-(4,4-difluorocyclohexylmethyl)-N-{(tetrahydrofuran-3-yl)methyl}-2-trifluoromethylimidazo[1,2-a]pyridine-7-carboxamide]",< 100
14,"Cc1cc(C(=O)NCC2(CO)CCOCC2)cc2nc(C(F)(F)F)c(CC3CCC(F)(F)CC3)n12 [Compound 85, 3-(4,4-Difluorocyclohexylmethyl)-N-[{4-(hydroxymethyl)tetrahydro-2H-pyran-4-yl}methyl]-5-methyl-2-trifluoromethylimidazo[1,2-a]pyridine-7-carboxamide]",< 100
15,"Cc1cc(C(=O)NC2CCC(=O)CC2)cc2nc(C(F)(F)F)c(CC3CCC(F)(F)CC3)n12 [Compound 71, 3-(4,4-Difluorocyclohexylmethyl)-5-methyl-N-(4-oxocyclohexyl)-2-trifluoromethylimidazo[1,2-a]pyridine-7-carboxamide]",< 100
16,"COCC1(CNC(=O)c2ccn3c(CC4CCC(F)(F)CC4)c(C(F)(F)F)nc3c2)CCOCC1 [Compound 59, 3-(4,4-Difluorocyclohexylmethyl)-N-[{4-(methoxymethyl)tetrahydro-2H-pyran-4-yl}methyl]-2-trifluoromethylimidazo[1,2-a]pyridine-7-carboxamide]",< 100
17,"Cc1cn2c(S(=O)(=O)C3CCCCC3)c(C(C)C)nc2cc1C(=O)Nc1ccncc1 [Compound 39, 3-Cyclohexylsulfonyl-2-isopropyl-6-methyl-N-(pyridin-4-yl)imidazo[1,2-a]pyridine-7-carboxamide]",< 100
18,"CC(C)c1nc2cc(C(=O)NC3CC(F)(F)C3)c(Cl)cn2c1S(=O)(=O)N1CC(F)(F)C1 [Compound 151, 6-Chloro-3-(3,3-difluoroazetidin-1-ylsulfonyl)-N-(3,3-difluorocyclobutyl)-2-isopropylimidazo[1,2-a]pyridine-7-carboxamide]",< 100

# Same assay, conditions: human Cav3.2-expressing KJMGER8 cells (Namalwa-derived); calcium response induced by 5 mmol/L CaCl2; normalised to 3 μmol/L mibefradil; read-out: IC50 for the human Cav3.2 T-type Ca2+ current
row,Compound,IC50 [nM]
1,"CC(C)c1nc2cc(C(=O)Nc3ccccc3)c(Cl)cn2c1S(=O)(=O)NC1CC(F)(F)C1 [Compound 154, 6-Chloro-3-{N-(3,3-difluorocyclobutyl)sulfamoyl}-2-isopropyl-N-phenylimidazo[1,2-a]pyridine-7-carboxamide]",< 100
2,"O=C(NOC1CCOCC1)c1cc2nc(C(F)(F)F)c(CC3CCC(F)(F)CC3)n2cc1Cl [Compound 181, 6-Chloro-3-(4,4-difluorocyclohexylmethyl)-N-(tetrahydro-2H-pyran-4-yloxy)-2-trifluoromethylimidazo[1,2-a]pyridine-7-carboxamide]",< 100
3,"CC(C)c1nc2cc(NC(=O)C3CCCCC3)ncn2c1S(=O)(=O)N1CCC(F)(F)CC1 [Compound 175, N-{3-(4,4-Difluoropiperidin-1-ylsulfonyl)-2-isopropylimidazo[1,2-c]pyrimidin-7-yl}cyclohexanecarboxamide]",< 100
4,"CC(C)c1nc2cc(NC(=O)c3ccccc3)ccn2c1COC1CCCCC1 [Compound 28, N-(3-Cyclohexyloxymethyl-2-isopropylimidazo[1,2-a]pyridin-7-yl)benzamide]",< 100
5,"CC(C)c1nc2cc(C(=O)Nc3ccccc3)ccn2c1S(=O)(=O)N(C)c1ccccc1 [Compound 132, 2-Isopropyl-3-(N-methyl-N-phenylsulfamoyl)-N-phenylimidazo[1,2-a]pyridine-7-carboxamide]",< 100
6,"CCC1(CNC(=O)c2ccn3c(CC4CCC(F)(F)CC4)c(C(F)(F)F)nc3c2)COC1 [Compound 56, 3-(4,4-Difluorocyclohexylmethyl)-N-{(3-ethyloxetan-3-yl)methyl}-2-trifluoromethylimidazo[1,2-a]pyridine-7-carboxamide]",< 100
7,"Cc1cc(-c2nc3ccccc3[nH]2)cc2nc(C(F)(F)F)c(CC3CCC(F)(F)CC3)n12 [Compound 127, 2-{3-(4,4-Difluorocyclohexylmethyl)-5-methyl-2-trifluoromethylimidazo[1,2-a]pyridin-7-yl}-1H-benzimidazole]",< 100
8,"CC(C)c1nc2cc(C(=O)Nc3ccccc3)ccn2c1S(=O)(=O)NC(C1CC1)C1CC1 [Compound 129, 3-{N-(Dicyclopropylmethyl)sulfamoyl}-2-isopropyl-N-phenylimidazo[1,2-a]pyridine-7-carboxamide]",< 100
9,"Cc1cc(C(=O)NCC2COCCOC2)cc2nc(C(F)(F)F)c(CC3CCC(F)(F)CC3)n12 [Compound 93, N-{(1,4-Dioxepan-6-yl)methyl}-3-(4,4-difluorocyclohexylmethyl)-5-methyl-2-trifluoromethylimidazo[1,2-a]pyridine-7-carboxamide]",< 100
10,"Cc1cn2c(S(=O)(=O)N3CCC(F)(F)CC3)c(C(C)C)nc2cc1C(=O)Nc1ccncc1 [Compound 165, 3-(4,4-Difluoropiperidin-1-ylsulfonyl)-2-isopropyl-6-methyl-N-(pyridin-4-yl)imidazo[1,2-a]pyridine-7-carboxamide]",< 100
11,"COC1(CNC(=O)c2cc(C)n3c(CC4CCC(F)(F)CC4)c(C(F)(F)F)nc3c2)CCOCC1 [Compound 86, 3-(4,4-Difluorocyclohexylmethyl)-N-{(4-methoxytetrahydro-2H-pyran-4-yl)methyl}-5-methyl-2-trifluoromethylimidazo[1,2-a]pyridine-7-carboxamide]",< 100
12,"CC(C)c1nc2cc(C(=O)Nc3ccccc3)c(Cl)cn2c1S(=O)(=O)NC(C)(C)C [Compound 156, 3-(N-tert-Butylsulfamoyl)-6-chloro-2-isopropyl-N-phenylimidazo[1,2-a]pyridine-7-carboxamide]",< 100
13,"CC(C)c1nc2cc(C(=O)NOCc3ccccc3)c(Cl)cn2c1S(=O)(=O)NC(C)(C)C [Compound 159, N-Benzyloxy-3-(N-tert-butylsulfamoyl)-6-chloro-2-isopropylimidazo[1,2-a]pyridine-7-carboxamide]",< 100
14,"CC(C)c1nc2cc(C(=O)NCC3CC3)c(Cl)cn2c1S(=O)(=O)N1CC(F)(F)C1 [Compound 150, 6-Chloro-N-cyclopropylmethyl-3-(3,3-difluoroazetidin-1-ylsulfonyl)-2-isopropylimidazo[1,2-a]pyridine-7-carboxamide]",< 100
15,"CC(C)c1nc2cc(-c3nc4ccccc4[nH]3)ccn2c1COC1CCCCC1 [Compound 33, 2-(3-Cyclohexyloxymethyl-2-isopropylimidazo[1,2-a]pyridin-7-yl)-1H-benzimidazole]",< 100
